Where a SMILES comes first, the peptide text is derived from it. Side-chain parts run from the residue outwards. [ ]: non-standard residue; d: D form. The star is where a group is joined. X2 = NC(=O)[C@H](CCCCNC(=O)c1ccc(-c2c3ccc4cc(O)ccc4c3oc3c2ccc2cc(=O)ccc23)c(C(=O)O)c1)N*; Lys(5-FITC)NH2 = NC(=O)[C@H](CCCCNC(=S)Nc1ccc2c(c1)C(=O)OC21c2ccc(O)cc2Oc2cc(O)ccc21)N*; X1 = CN(C)c1ccc2c(c1)Oc1cc(N(C)C)ccc1C21OC(=O)c2cc(C(=O)NCCCC[C@H](N*)C(N)=O)ccc21; 2Nal = N[C@@H](Cc1ccc2ccccc2c1)C(=O)O; Bta = N[C@@H](Cc1csc2ccccc12)C(=O)O; AEEA = NCCOCCOCC(=O)O
Legend:
proteins in FBS = experiment: Fluorescence polarization analysis of CPP binding to FBS; design: species or system bovine; conditions: 100 nM labeled peptide, FBS in DPBS, 1 h, FP; read-out: apparent KD to proteins in FBS
Method: General Methods—Fluorescence Polarization (FP) Analysis of CPP Binding to FBS. Fluorescein-labeled peptide (100 nM) was incubated with serial dilutions of FBS (0-100 μM) in DPBS for 1 h. The solutions were transferred to a 384-black microplate (Greiner), and FP values were measured on a Tecan Infinite M1000 Pro plate reader, with excitation and emission wavelengths at 470 and 535 nm, respectively, for FITC, 530 and 580 nm for TMR, and 595 and 660 nm for NF. The titration curves were fitted using GraphPad Prism to the following equation: […]
where FP is the measured polarization, Amin is the minimum FP value, Amax is the maximum FP value, Qb is the quantum yield of the bound fluorophore, Qf is the quantum yield of the free fluorophore, L is the ligand concentration, KD is the dissociation constant, and x is the protein concentration. Data presented are the mean±SD of three independent experiments.

HeLa cells = experiment: Live-cell confocal microscopy; assay type: cell-based, human; conditions: 2 h, 1% FBS
Method: General Methods—Confocal Microscopy. HeLa cells were seeded in a 35-mm glass-bottomed microwell dish with 4 compartments (Greiner) at a density of 5×10^4 cells/mL (300 μL in each compartment) and cultured overnight. Next day, the cells were gently washed with DPBS twice, and treated for 2 h with FITC- or TMR-labelled peptides (5 μM, 1 μM or 0.2 μM as indicated) in phenol-red free DMEM containing 1% […]. After removal of the medium, the cells were gently washed with DPBS twice and imaged on a Nikon A1R live-cell confocal laser scanning (ECLIPSE Ti-E automated, inverted) microscope equipped with a 100× oil objective (1.45 N.A.) and a heated (37° C.) chamber supplied with 5% CO2. For the red channel (TMR), the laser line with λEx 561 nm was set at 0.6% laser power (for 5 μM peptide treatment), 1.6% laser power (for 1 μM peptide treatment) or 10.8% laser power (for 0.2 μM peptide treatment). For the green channel (FITC), the laser line with λEx 487 nm was set at 0.6% laser power. The data were analyzed using NIS-Elements AR.

Keap1-Nrf2 interaction = experiment: Luciferase reporter assay in ARE reporter-HepG2 cells; assay type: cell-based; conditions: up to 5 mM concentration
Method: General Methods—Luciferase Reporter Assay. ARE reporter-HepG2 cells (1000 cells per well) were seeded in 100 μL of assay medium (MEM, 0% FBS, and 1% penicillin-streptomycin sulfate) in an opaque 96-well plate and cultured overnight. […] After incubation, 100 μL of One-Step luciferase assay reagent was added to each well and after 15 min of shaking, the luminescence was measured using a Tecan Infinite M1000 Pro microplate reader. P values (<0.05) were estimated using Student's t test.

Kd (proteins in FBS)	Compound	intracellular distribution of TMR fluorescence (HeLa cells; 0.2 and 1.0 μM)	intracellular distribution of TMR fluorescence (HeLa cells; 5 μM)	increase in luciferase activity (Keap1-Nrf2 interaction)
30 ± 5 µM	N=C(N)NCCC[C@@H]1NC(=O)[C@H](Cc2csc3ccccc23)NC(=O)[C@@H](Cc2ccccc2)NC(=O)[C@H](Cc2ccccc2)NC(=O)[C@H](CCC(=O)NCCOCCOCC(=O)N[C@@H](CCCCNC(=S)Nc2ccc3c(c2)C(=O)OC32c3ccc(O)cc3Oc3cc(O)ccc32)C(N)=O)NC(=O)[C@@H](CCCNC(=N)N)NC(=O)[C@H](CCCNC(=N)N)NC(=O)[C@@H](CCCNC(=N)N)NC1=O [CPP12-2^FITC] (cyclo(F[dF][Bta]R[dR]R[dR]E([AEEA-Lys(5-FITC)NH2])))	–	–	–
68 ± 9 µM	CN(C)c1ccc2c(c1)Oc1cc(N(C)C)ccc1C21OC(=O)c2cc(C(=O)NCCCC[C@H](NC(=O)COCCOCCNC(=O)CC[C@@H]3NC(=O)[C@@H](CCCNC(=N)N)NC(=O)[C@H](CCCNC(=N)N)NC(=O)[C@@H](CCCNC(=N)N)NC(=O)[C@H](CCCNC(=N)N)NC(=O)[C@H](Cc4csc5ccccc45)NC(=O)[C@@H](Cc4ccccc4)NC(=O)[C@H](Cc4ccccc4)NC3=O)C(N)=O)ccc21 [CPP12-2^TMR] (cyclo([Bta]R[dR]R[dR]E([AEEA-X1])F[dF]))	predominantly punctate fluorescence in the cytoplasmic region	–	–
29 ± 3 µM	N=C(N)NCCC[C@@H]1NC(=O)[C@H](Cc2ccc3ccccc3c2)NC(=O)[C@@H](Cc2ccccc2)NC(=O)[C@H](Cc2ccccc2)NC(=O)[C@H](CCC(=O)NCCOCCOCC(=O)N[C@@H](CCCCNC(=S)Nc2ccc3c(c2)C(=O)OC32c3ccc(O)cc3Oc3cc(O)ccc32)C(N)=O)NC(=O)[C@@H](CCCNC(=N)N)NC(=O)[C@H](CCCNC(=N)N)NC(=O)[C@@H](CCCNC(=N)N)NC1=O [CPP12^FITC] (cyclo(F[dF][2Nal]R[dR]R[dR]E([AEEA-Lys(5-FITC)NH2])))	–	–	–
27 ± 9 µM	CN(C)c1ccc2c(c1)Oc1cc(N(C)C)ccc1C21OC(=O)c2cc(C(=O)NCCCC[C@H](NC(=O)COCCOCCNC(=O)CC[C@@H]3NC(=O)[C@@H](CCCNC(=N)N)NC(=O)[C@H](CCCNC(=N)N)NC(=O)[C@@H](CCCNC(=N)N)NC(=O)[C@H](CCCNC(=N)N)NC(=O)[C@H](Cc4ccc5ccccc5c4)NC(=O)[C@@H](Cc4ccccc4)NC(=O)[C@H](Cc4ccccc4)NC3=O)C(N)=O)ccc21 [CPP12^TMR] (cyclo([2Nal]R[dR]R[dR]E([AEEA-X1])F[dF]))	predominantly punctate fluorescence in the cytoplasmic region	very similar intracellular distribution	–

Continued, compound first:

Compound	Kd (proteins in FBS)	intracellular distribution of TMR fluorescence (HeLa cells; 0.2 and 1.0 μM)	intracellular distribution of TMR fluorescence (HeLa cells; 5 μM)	increase in luciferase activity (Keap1-Nrf2 interaction)
N=C(N)NCCC[C@@H]1NC(=O)[C@H](Cc2ccc3ccccc3c2)NC(=O)[C@@H](Cc2ccccc2)NC(=O)[C@H](Cc2ccccc2)NC(=O)[C@H](CCC(=O)NCCOCCOCC(=O)N[C@@H](CCCCNC(=O)c2ccc(-c3c4ccc5cc(O)ccc5c4oc4c3ccc3cc(=O)ccc34)c(C(=O)O)c2)C(N)=O)NC(=O)[C@@H](CCCNC(=N)N)NC(=O)[C@H](CCCNC(=N)N)NC(=O)[C@@H](CCCNC(=N)N)NC1=O [CPP12, cycl(Phe-D-Phe-Nal-Arg-D-Arg-Arg-D-Arg-Gln)] (cyclo([2Nal]R[dR]R[dR]E([AEEA-X2])F[dF]))	1.3 ± 0.3 µM	–	–	–
N=C(N)NCCC[C@@H]1NC(=O)[C@H](Cc2csc3ccccc23)NC(=O)[C@@H](Cc2ccccc2)NC(=O)[C@H](Cc2ccccc2)NC(=O)[C@H](CCC(=O)NCCOCCOCC(=O)N[C@@H](CCCCNC(=O)c2ccc(-c3c4ccc5cc(O)ccc5c4oc4c3ccc3cc(=O)ccc34)c(C(=O)O)c2)C(N)=O)NC(=O)[C@@H](CCCNC(=N)N)NC(=O)[C@H](CCCNC(=N)N)NC(=O)[C@@H](CCCNC(=N)N)NC1=O [CPP12-2, Phe-phe-(Bta)-Arg-arg-Arg-arg-Gln] (cyclo([Bta]R[dR]R[dR]E([AEEA-X2])F[dF]))	1.2 ± 0.4 µM	–	–	–
CC(C)C[C@@H]1NC(=O)[C@H](Cc2ccccc2)NC(=O)[C@H](CCC(=O)O)NC(=O)CNC(=O)[C@H]([C@@H](C)O)NC(=O)[C@H](CCC(=O)O)NC(=O)[C@@H]2CCCN2C(=O)[C@H](CC(=O)O)NC(=O)[C@H](CC(C)C)NC(=O)[C@H](CCC(N)=O)NC(=O)CNC1=O [Peptide P1]	–	–	–	did not result in significant increase in luciferase activity

Reference: patent publication US20240158445A1, “CYCLIC CELL-PENETRATING PEPTIDES WITH THREE OR MORE HYDROPHOBIC RESIDUES” (Ohio State Innovation Foundation, priority 2021, published 2024)
